According to ChEMBL document CHEMBL3400031, “Histone H3 peptide based LSD1-selective inhibitors” (Bioorg Med Chem Lett, 2015):
Numbered stars: 1 amine (or outer) side, 2 acyl side, 3 side chain; on linkers, the order of the positions; unused ones are H or OH. Square brackets hold non-standard residues; d marks the D form. Peptide text beside a SMILES is read from it. X1 = O=C([C@H](CCCCNC1CC1c1ccccc1)N[*:1])[*:2]

Key:
[1] = target: T1, Amine oxidase [flavin-containing] B (Homo sapiens, UniProt P27338); assay: Inhibition of human MAOB using (4S)-4,5-dihydro-2-(6-hydroxybenzothiazolyl)-4-thiazolecarboxylic acid substrate incubated for 60 mins by luciferin detection based chemiluminescence assay
T1 sequence (P27338 whole entry): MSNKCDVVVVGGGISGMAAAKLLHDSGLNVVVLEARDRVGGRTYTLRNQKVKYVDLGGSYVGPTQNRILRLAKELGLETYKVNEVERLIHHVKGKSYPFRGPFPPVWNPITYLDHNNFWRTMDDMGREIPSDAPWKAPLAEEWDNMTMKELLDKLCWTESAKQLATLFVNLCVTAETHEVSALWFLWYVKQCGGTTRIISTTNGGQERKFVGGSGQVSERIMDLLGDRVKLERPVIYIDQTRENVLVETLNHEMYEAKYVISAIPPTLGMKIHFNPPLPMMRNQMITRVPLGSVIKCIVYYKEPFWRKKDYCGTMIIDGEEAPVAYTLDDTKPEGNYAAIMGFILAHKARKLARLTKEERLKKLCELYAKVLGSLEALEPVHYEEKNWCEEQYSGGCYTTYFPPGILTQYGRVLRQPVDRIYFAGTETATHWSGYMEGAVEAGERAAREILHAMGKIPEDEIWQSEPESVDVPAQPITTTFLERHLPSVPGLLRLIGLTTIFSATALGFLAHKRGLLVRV

[2] = target: T2, Amine oxidase [flavin-containing] A (Homo sapiens, UniProt P21397); assay: Inhibition of human MAOA using (4S)-4,5-dihydro-2-(6-hydroxybenzothiazolyl)-4-thiazolecarboxylic acid substrate incubated for 60 mins by luciferin detection based chemiluminescence assay
T2 sequence (P21397 whole entry): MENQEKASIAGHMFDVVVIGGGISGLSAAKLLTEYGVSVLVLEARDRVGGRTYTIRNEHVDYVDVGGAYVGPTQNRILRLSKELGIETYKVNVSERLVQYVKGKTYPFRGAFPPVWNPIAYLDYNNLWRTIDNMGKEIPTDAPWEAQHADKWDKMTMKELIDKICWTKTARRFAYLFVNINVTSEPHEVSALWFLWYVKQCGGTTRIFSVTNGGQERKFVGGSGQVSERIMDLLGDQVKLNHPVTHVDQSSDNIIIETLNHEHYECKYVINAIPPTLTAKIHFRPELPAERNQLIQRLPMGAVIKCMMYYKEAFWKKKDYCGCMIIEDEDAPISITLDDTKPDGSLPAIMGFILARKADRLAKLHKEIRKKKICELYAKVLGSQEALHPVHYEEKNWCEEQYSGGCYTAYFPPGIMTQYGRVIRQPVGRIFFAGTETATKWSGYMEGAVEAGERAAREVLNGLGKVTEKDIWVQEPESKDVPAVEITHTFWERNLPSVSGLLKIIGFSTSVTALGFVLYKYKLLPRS

[3] = target: Lysine-specific histone demethylase 1A (Homo sapiens, UniProt O60341); assay: Inhibition of human recombinant LSD1 assessed as effect on H2O2 production incubated for 30 mins using methylated peptide substrate, Amplex red reagent and peroxidase by fluorimetry

| IC50 [1] [µM] | IC50 [2] [µM] | IC50 [3] [µM] | Compound |
| --- | --- | --- | --- |
| > 100 | > 100 |  | C[C@H](N)C(=O)N[C@@H](CCCNC(=N)N)C(=O)N[C@H](C(=O)N[C@@H](CCCCNC1CC1c1ccccc1)C(=O)N[C@@H](CCC(N)=O)C(=O)N[C@H](C(=O)N[C@@H](C)C(=O)N[C@@H](CCCNC(=N)N)C(=O)N[C@@H](CCCCN)C(=O)N[C@@H](CO)C(=O)N[C@H](C(=O)NCC(=O)NCC(=O)N[C@@H](CCCCN)C(=O)N[C@@H](C)C(=O)N1CCC[C@H]1C(=O)N[C@@H](CCCNC(=N)N)C(=O)O)[C@@H](C)O)[C@@H](C)O)[C@@H](C)O (some centres undefined) (H-ART[X1]QTARKSTGGKAPR-OH) |
| > 100 | > 100 |  | C[C@H](N)C(=O)N[C@@H](CCCNC(=N)N)C(=O)N[C@H](C(=O)N[C@@H](CCCCNC1CC1c1ccccc1)C(=O)N[C@@H](CCC(N)=O)C(=O)N[C@H](C(=O)N[C@@H](C)C(=O)N[C@@H](CCCNC(=N)N)C(=O)N[C@@H](CCCCN)C(=O)N[C@@H](CO)C(=O)N[C@H](C(=O)NCC(=O)NCC(=O)O)[C@@H](C)O)[C@@H](C)O)[C@@H](C)O (some centres undefined) |
| > 100 | > 100 |  | C[C@H](N)C(=O)N[C@@H](CCCNC(=N)N)C(=O)N[C@H](C(=O)N[C@@H](CCCCNC1CC1c1ccccc1)C(=O)N[C@@H](CCC(N)=O)C(=O)N[C@H](C(=O)N[C@@H](C)C(=O)N[C@@H](CCCNC(=N)N)C(=O)N[C@@H](CCCCN)C(=O)O)[C@@H](C)O)[C@@H](C)O (some centres undefined) |
| > 100 | > 100 | > 10 | C[C@H](N)C(=O)N[C@@H](CCCNC(=N)N)C(=O)N[C@H](C(=O)N[C@@H](CCCCNC1CC1c1ccccc1)C(=O)N[C@@H](CCC(N)=O)C(=O)O)[C@@H](C)O (some centres undefined) (H-ART[X1]Q-OH) |
